Values joined by “and” are separate entries in the source; they are usually repeats but may differ in a detail not shown here. Equal values may be shown once.
What was measured:
[1] = molecular target: T1, HSA (Homo sapiens, UniProt P02768); format: binding; conditions: 1.0 µM 2′R-OTA, 1.5 µM HSA, site marker 0–30 µM, PBS pH 7.4
T1 construct: purchased Sigma-Aldrich

[2] = humans; cited from earlier work
[3] = system: MDCK cells; format: cell-based, canine; conditions: 24 h; for effect on the concentration of ATP and total protein: 0–50 µM
Source text: Similarly to OTA, 2′R-OTA also forms very stable complexes with albumins (Table 2). Therefore, it was reasonable to hypothesize that the presence of albumin may decrease the 2′R-OTA-induced toxicity in cell experiments, due to the entrapment of the mycotoxin in the cell medium by albumin. To test the influence of albumin on the in vitro effects of ochratoxins, the acute cellular toxicity of 2′R-OTA and OTA was investigated in the absence and presence of HSA and fetal bovine serum (FBS). MDCK kidney cells were treated with the mycotoxins at increasing concentrations (0–50 µM) for 24 h with and without 10% FBS or 40 g/L HSA. Ten percent FBS is commonly used in cell culture media (it yields approximately 3.5 g/L final concentration of BSA) in cell experiments, whereas approximately 40 g/L HSA circulates in the human blood. The mycotoxin-induced loss of cell viability was evaluated based on ATP and total protein levels. […] Under the applied conditions, the presence of 10% FBS or 40 g/L HSA (without ochratoxins) had no significant effect on cell viability (data not shown). […] The weaker effect of FBS can be attributed to the lower BSA content of the cell medium (3.5 g/L BSA verses 40 g/L HSA). Since albumins form very stable complexes with both 2′R-OTA and OTA, albumin likely reduces the cellular uptake of these mycotoxins, resulting in their lower cellular toxicity.
MDCK (Madin-Darby canine kidney epithelial cell line, ATCC: CCL-34) cell culture was maintained in DMEM with 10% FBS, penicillin (100 U/mL), and streptomycin (100 µg/mL) at 37 °C in a humidified environment (5% CO2). Cells were trypsinized and plated in 96-well sterile plastic plates (approximately 10^4 cells/well) for overnight pre-incubation. Next day, the culture medium was replaced with fresh one (with or without 10% FBS or 40 g/L HSA), then cells were treated with increasing concentrations of 2′R-OTA and/or OTA (0, 1, 5, 10, 20 and 50 µM; in 150 µL medium/well). After 24 h incubation, cell viability was evaluated based on cellular ATP and total protein levels. […]

[4] = humans; cited from earlier work; remark: listed apart in the source
[5] = molecular target: T1, HSA; conditions: cited from earlier work
[6] = molecular target: rat serum albumin (RSA) (Rattus norvegicus, UniProt P02770); assay: Fluorescence spectroscopy of 2′R-OTA/OTA-RSA complex (binding constant by Hyperquad, fluorescence enhancement); conditions: for Kd: K in L/mol, PBS pH 7.4, 25 °C
Chain of rat serum albumin (RSA) (P02770 25-608): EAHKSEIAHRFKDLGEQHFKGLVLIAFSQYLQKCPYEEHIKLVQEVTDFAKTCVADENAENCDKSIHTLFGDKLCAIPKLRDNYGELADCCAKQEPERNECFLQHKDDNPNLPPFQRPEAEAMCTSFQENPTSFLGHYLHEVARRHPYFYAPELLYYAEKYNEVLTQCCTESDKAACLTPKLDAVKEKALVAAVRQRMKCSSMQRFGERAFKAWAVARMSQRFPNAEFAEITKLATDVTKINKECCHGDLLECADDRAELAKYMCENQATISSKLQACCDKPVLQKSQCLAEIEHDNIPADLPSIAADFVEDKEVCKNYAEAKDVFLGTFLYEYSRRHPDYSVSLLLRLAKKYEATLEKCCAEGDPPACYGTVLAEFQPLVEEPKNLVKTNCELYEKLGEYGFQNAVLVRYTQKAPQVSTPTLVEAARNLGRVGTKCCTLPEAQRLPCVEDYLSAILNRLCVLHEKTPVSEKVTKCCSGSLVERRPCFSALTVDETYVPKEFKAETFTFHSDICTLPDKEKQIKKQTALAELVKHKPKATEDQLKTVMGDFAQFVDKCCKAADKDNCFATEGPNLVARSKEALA
Protocol: (§1) To test this hypothesis, the fluorescence emission spectra of 2′R-OTA (Figure 7A) and OTA (Figure 7B) were recorded in the absence and presence of albumins from different species, including human (HSA), bovine (BSA), porcine (PSA), and rat (RSA) serum albumins (λex = 394 nm).
(§2) However, excitation of the same samples at 394 nm leads to the excitation of both free and albumin-bound 2′R-OTA [23, 24]. […] Binding constants of 2′R-OTA-albumin complexes were determined by the Hyperquad program, based on the fluorescence intensities measured at 447 nm (Figure 8C,D).
(§3) Fluorescence spectroscopic analyses, including anisotropy measurements, were carried out employing a Hitachi F-4500 fluorescence spectrophotometer. Spectroscopic measurements were performed in phosphate buffered saline (PBS, pH 7.4) at 25 °C in the presence of air. Fluorescence emission spectrum of 2′R-OTA (1 µM) was recorded in the presence of increasing concentrations of albumin (0.0, 0.1, 0.25, 0.5, 0.75, 1.0, 1.25, 1.5, 2.0, 3.0 and 5.0 µM) using 295 and 394 nm as excitation wavelengths. At 394 nm, we excited directly 2′R-OTA and its albumin complex. However, using 295 nm excitation wavelength, albumin-bound 2′R-OTA was excited as a result of the energy transfer between albumins and 2′R-OTA [23, 31].
(§4) Binding constants (K) of mycotoxin-albumin complexes were calculated by non-linear fitting, using the Hyperquad2006 program package (Protonic Software) as described in previous studies. The stoichiometry of 2′R-OTA-albumin complexes was calculated based on the model associated with the lowest standard deviation.

[7] = system: IHKE and HepG2 cell lines; conditions: in vitro studies; cited from earlier work
[8] = molecular target: bovine serum albumin (BSA) (Bos taurus, UniProt P02769); assay: Fluorescence spectroscopy of 2′R-OTA/OTA-BSA complex (binding constant by Hyperquad, fluorescence enhancement); conditions: for Kd: K in L/mol, PBS pH 7.4, 25 °C
Chain of bovine serum albumin (BSA) (P02769 25-607): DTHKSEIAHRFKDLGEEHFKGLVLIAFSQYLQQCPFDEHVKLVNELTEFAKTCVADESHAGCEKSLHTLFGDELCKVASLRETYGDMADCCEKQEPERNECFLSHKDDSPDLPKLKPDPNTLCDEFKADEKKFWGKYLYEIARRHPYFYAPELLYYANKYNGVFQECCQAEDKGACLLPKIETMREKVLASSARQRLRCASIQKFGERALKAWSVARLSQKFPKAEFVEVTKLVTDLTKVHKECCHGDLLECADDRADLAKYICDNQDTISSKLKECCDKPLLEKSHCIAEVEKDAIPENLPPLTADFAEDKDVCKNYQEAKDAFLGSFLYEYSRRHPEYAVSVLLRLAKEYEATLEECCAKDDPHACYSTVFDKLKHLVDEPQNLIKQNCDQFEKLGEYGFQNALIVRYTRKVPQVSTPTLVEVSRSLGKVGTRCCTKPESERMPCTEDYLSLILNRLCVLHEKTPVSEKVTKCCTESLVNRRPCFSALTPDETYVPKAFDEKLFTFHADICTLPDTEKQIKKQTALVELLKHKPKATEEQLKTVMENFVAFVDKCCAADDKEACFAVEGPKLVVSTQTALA
Protocol: as §1, §2, §3, §4

[9] = molecular target: human serum albumin (HSA) (Homo sapiens, UniProt P02768); assay: Fluorescence spectroscopy of 2′R-OTA-HSA complex (binding constant by Hyperquad, fluorescence enhancement)
Chain of human serum albumin (HSA) (P02768 25-609): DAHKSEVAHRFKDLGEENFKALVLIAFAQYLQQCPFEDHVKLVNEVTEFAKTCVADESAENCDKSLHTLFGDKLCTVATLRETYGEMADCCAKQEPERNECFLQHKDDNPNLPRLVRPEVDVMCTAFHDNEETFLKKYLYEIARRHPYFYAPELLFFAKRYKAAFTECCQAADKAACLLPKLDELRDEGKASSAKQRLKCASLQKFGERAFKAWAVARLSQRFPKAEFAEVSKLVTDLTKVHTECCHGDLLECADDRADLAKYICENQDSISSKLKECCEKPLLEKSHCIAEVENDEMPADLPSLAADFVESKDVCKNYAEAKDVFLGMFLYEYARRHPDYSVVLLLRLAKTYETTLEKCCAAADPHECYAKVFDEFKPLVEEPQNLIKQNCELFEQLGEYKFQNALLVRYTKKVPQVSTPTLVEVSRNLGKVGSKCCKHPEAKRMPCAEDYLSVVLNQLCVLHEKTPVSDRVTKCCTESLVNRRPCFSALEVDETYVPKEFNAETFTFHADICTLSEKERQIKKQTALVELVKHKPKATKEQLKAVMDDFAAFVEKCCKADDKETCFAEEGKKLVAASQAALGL
Protocol: as §1, §2, §3, §4

[10] = molecular target: T1, HSA; assay: Thermodynamics of 2′R-OTA-HSA complex formation (van’t Hoff, six temperatures); format: binding
Source text: Since thermodynamic data give a deeper insight into the nature of protein-ligand interactions (including binding forces are involved in the complex formation), the binding ability of 2′R-OTA towards HSA was also examined at different temperatures. According to the van’t Hoff equation (Equation (2)), the logK values expressed as the function of the appropriate reciprocal temperatures show good linearity (Figure 6).
For the deeper insight into 2′R-OTA-HSA interaction, binding constants of mycotoxin-albumin complexes were also determined at six different temperatures (298, 301, 304, 307, 310 and 313 K). The binding constants were determined by the Hyperquad2006 program package, using 394 and 447 nm as excitation and emission wavelengths, respectively. Thermodynamic parameters associated to the complex formation between 2′R-OTA and HSA were determined based on the van ’t Hoff equation: (2) logK=−ΔG /RT=−ΔH/2.303RT+ΔS/2.303R where ΔG, ΔH, and ΔS denote the Gibbs free energy, enthalpy, and entropy changes of the binding reaction, respectively; while R is the gas constant and T refers the temperature.

[11] = molecular target: porcine serum albumin (PSA) (Sus scrofa, UniProt P08835); assay: Fluorescence spectroscopy of 2′R-OTA/OTA-PSA complex (binding constant by Hyperquad, fluorescence enhancement); conditions: λem = 447 nm; for Kd: K in L/mol, PBS pH 7.4, 25 °C
Chain of porcine serum albumin (PSA) (P08835 25-607): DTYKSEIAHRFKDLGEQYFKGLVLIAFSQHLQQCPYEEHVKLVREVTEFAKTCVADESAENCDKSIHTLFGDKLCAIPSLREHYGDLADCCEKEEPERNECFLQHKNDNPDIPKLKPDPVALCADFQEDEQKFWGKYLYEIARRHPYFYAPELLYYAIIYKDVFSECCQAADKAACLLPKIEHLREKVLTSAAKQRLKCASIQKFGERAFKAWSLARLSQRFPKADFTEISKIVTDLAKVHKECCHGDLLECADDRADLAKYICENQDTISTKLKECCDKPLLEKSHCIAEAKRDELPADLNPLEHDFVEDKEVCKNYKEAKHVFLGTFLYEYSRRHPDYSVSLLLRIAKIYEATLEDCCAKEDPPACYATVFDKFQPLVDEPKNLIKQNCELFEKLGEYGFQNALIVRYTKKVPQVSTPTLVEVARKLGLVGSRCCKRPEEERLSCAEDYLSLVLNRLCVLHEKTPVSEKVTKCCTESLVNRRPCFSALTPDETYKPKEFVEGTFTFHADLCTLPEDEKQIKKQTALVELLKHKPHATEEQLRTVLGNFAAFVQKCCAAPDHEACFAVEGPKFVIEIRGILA
Protocol: as §1, §2, §3, §4

[12] = system: MDCK cells; assay: Co-treatment of MDCK cells with OTA and 2′R-OTA (ATP levels/well); format: cell-based, canine; conditions: sub-toxic 2′R-OTA concentrations, 24 h
Protocol: Since 2′R-OTA appears in the circulation together with OTA, the toxic action of OTA in the presence of increasing 2′R-OTA concentrations was also tested. Both mycotoxins occupy Site I as their primary binding sites in albumin, therefore, 2′R-OTA may able to displace OTA from HSA, resulting in the increased cellular uptake and cytotoxicity of OTA in the presence of 2′R-OTA. Because 40 g/L HSA completely abolished the acute toxic action of ochratoxins, co-treatment of MDCK cells with OTA and 2′R-OTA was investigated without albumin and in the presence of 10% FBS. ATP levels/well were quantified after 24 h incubation. […] In the presence of FBS (Figure 10B), the 2′R-OTA-induced further loss in cell viability may be partly attributed to the displacement of OTA from albumin by 2′R-OTA. […] Therefore, other toxicokinetic and/or toxicodynamic mechanism(s) may be involved. Despite its relatively lower toxicity, when simultaneously present 2′R-OTA with OTA, 2′R-OTA can increase the effect of OTA.
MDCK (Madin-Darby canine kidney epithelial cell line, ATCC: CCL-34) cell culture was maintained in DMEM with 10% FBS, penicillin (100 U/mL), and streptomycin (100 µg/mL) at 37 °C in a humidified environment (5% CO2). […] After 24 h incubation, cell viability was evaluated based on cellular ATP and total protein levels. […]

[13] = 1 µM mycotoxin, 5 µM albumin, PBS, λex = 394 nm
[14] = both excitation wavelengths (295 or 394 nm)

T1 sequence (P02768 25-609): as the sequence (P02768 25-609) above

C=CC1=C(C)/C(=C/c2[nH]c(Cc3[nH]c(/C=C4\NC(=O)C(C)=C4C=C)c(C)c3CCC(=O)O)c(CCC(=O)O)c2C)NC1=O [bilirubin]
displacement of 2′R-OTA from HSA by the site marker [1]: strongly displaced

C[C@@H]1Cc2c(Cl)cc(C(=O)N[C@@H](Cc3ccccc3)C(=O)O)c(O)c2C(=O)O1 [OTA, Ochratoxin A]
plasma protein binding [2]: 99.8% | effect on the concentration of ATP and total protein [3]: dose-dependent, significant decreases | plasma elimination half-life [4]: approximately one month | stability of OTA-HSA complex higher than that of the complex with bovine albumin [5]: approximately tenfold | stability of OTA-HSA complex higher than that of the complex with rat albumin [5]: ~30 fold | affinity order toward albumins of different species ([5]; previous investigations): Human > bovine > porcine > rat | fluorescence enhancement by RSA compared with other albumins [6, 13]: highest fluorescence

CN(C)c1ccc(N=Nc2ccc(S(=O)(=O)[O-])cc2)cc1.[Na+] [methyl orange]
displacement of 2′R-OTA from HSA by the site marker [1]: strongly displaced | affinity to HSA compared with another ligand [5]: much lower affinity to HSA than bilirubin

CC1=C2C(=CO[C@H](C)[C@H]2C)C(O)=C(C(=O)O)C1=O [citrinin]
binding constant K of the complex with HSA [5]: 200000 L/mol

C[C@H]1CCCC(=O)CCC/C=C/c2cc(O)cc(O)c2C(=O)O1 [zearalenone]
binding constant K of the complex with HSA [5]: 10^5 L/mol

C[C@@H]1Cc2c(Cl)cc(C(=O)N[C@H](Cc3ccccc3)C(=O)O)c(O)c2C(=O)O1 [2′R-OTA, 2′R-ochratoxin A]
effect on the concentration of ATP and total protein [3]: dose-dependent, significant decreases | cytotoxicity relative to OTA [3]: approximately 10 times lower | acute toxicity compared with OTA [7]: lower acute toxicity | fluorescence enhancement by BSA compared with other albumins [8, 13]: highest emission signal | I/I0 (±SD), enhancement of the fluorescence of 2′R-OTA by complex formation ([8]; BSA, λex = 394 nm, λem = 447 nm, PBS): 2.48 ± 0.06 | affinity to BSA relative to HSA and PSA [8, 14]: 2–3 times higher | Kd ([8]; logK (± SD) of binding constant, BSA, λex = 295 nm, λem = 447 nm): 214 nM | Kd ([8]; logK (±SD) of binding constant, BSA, λex = 394 nm, λem = 447 nm): 47.9 nM | Kd [9]: 525 nM | I/I0 (±SD), enhancement of the fluorescence of 2′R-OTA by complex formation ([9]; HSA, λex = 394 nm, λem = 447 nm, PBS): 2.35 ± 0.07 | Kd at 1 µM ([9]; human, human serum albumin (HSA) in PBS, pH 7.4): 229 nM | ΔH of 2′R-OTA-HSA complex formation ([10]; 298-313 K): -2.02 kcal/mol | ΔS of 2′R-OTA-HSA complex formation ([10]; 298-313 K): 102.62 J K^-1 mol^-1 | ΔG of 2′R-OTA-HSA complex formation ([10]; 298K (room-temperature)): -9.331 kcal/mol | Kd ([11]; logK (± SD) of binding constant, λex = 295 nm): 617 nM | Kd ([11]; logK (±SD) of binding constant, λex = 394 nm): 145 nM | I/I0 (±SD), enhancement of the fluorescence of 2′R-OTA by complex formation ([11]; λex = 394 nm, PBS): 1.98 ± 0.05 | affinity to HSA lower than that of OTA [5]: approximately tenfold | binding constant K of the complex with HSA [5]: ~ 2 × 10^6 L/mol and 2 × 10^6 L/mol | binding constant of 2′R-OTA-HSA complex higher than that of aflatoxin-HSA complexes [5]: 100 fold | effect of 2′R-OTA on the toxic effect of OTA ([12]; absence of FBS, 1 μM OTA): increased significantly | effect of 2′R-OTA on the toxic effect of OTA ([12]; presence of 10% FBS, 20 μM OTA): increased significantly | I/I0 (±SD), enhancement of the fluorescence of 2′R-OTA by complex formation ([6]; RSA, λex = 394 nm, λem = 447 nm, PBS): 2.22 ± 0.09 | affinity to RSA relative to HSA and PSA [6, 14]: 2–3 times higher | Kd ([6]; logK (± SD) of binding constant, RSA, λex = 295 nm, λem = 447 nm): 355 nM | Kd ([6]; logK (±SD) of binding constant, RSA, λex = 394 nm, λem = 447 nm): 64.6 nM

— paper PMC6162703, “Interaction of 2′R-ochratoxin A with Serum Albumins: Binding Site, Effects of Site Markers, Thermodynamics, Species Differences of Albumin-binding, and Influence of Albumin on Its Toxicity in MDCK Cells” (Toxins, 2018)
